ChEMBL document CHEMBL1155994, “NO-NSAIDs: Gastric-sparing nitric oxide-releasable prodrugs of non-steroidal anti-inflammatory drugs” (Bioorg Med Chem Lett, 2009)
Active and inactive are the calls of the source. The calls are words filed in the database; no cut-off is given here.

Legend:
[1] = system: Rattus norvegicus; assay: Antiinflammatory activity against carrageenan-induced paw edema in rat at dose equimolar to 10 mg/kg aspirin, po administered 1 hr before carrageenan challenge measured after 6 hrs by plethysmometer; assay type: functional
[2] = system: Rattus norvegicus; assay: Gastrointestinal toxicity in rat assessed as ulcerogenic index at dose equimolar to 100 mg/kg of aspirin, po after 3 hrs; assay type: organism-based; set-up: dose 100 mg/kg, route oral; conditions: in vivo
[3] = system: Rattus norvegicus; assay: Effect on nitric oxide release in rat assessed as plasma nitrate/nitrite concentration at dose equimolar to 10 mg/kg of diclofenac, po by Griess method; assay type: functional, organism-based; set-up: dose 10 mg/kg
[4] = system: Rattus norvegicus; assay: AUC in rat at po dose of equimolar to aspirin; assay type: ADME, organism-based, Plasma; conditions: in vivo
[5] = system: Rattus norvegicus; assay: Gastrointestinal toxicity in rat assessed as ulcerogenic index at dose equimolar to 100 mg/kg of diclofenac, po after 5 hrs; assay type: organism-based; set-up: dose 100 mg/kg, route oral; conditions: in vivo
[6] = system: Rattus norvegicus; assay: Antiinflammatory activity against carrageenan-induced paw edema in rat at dose equimolar to 150 mg/kg aspirin, po administered 1 hr before carrageenan challenge measured after 4 hrs by plethysmometer; assay type: functional; conditions: at 150 mg/kg
[7] = system: Rattus norvegicus; assay: Antiinflammatory activity against carrageenan-induced paw edema in rat at dose equimolar to 150 mg/kg aspirin, po administered 1 hr before carrageenan challenge measured after 6 hrs by plethysmometer; assay type: functional
[8] = system: Rattus norvegicus; assay: Antiinflammatory activity against carrageenan-induced paw edema in rat at 150 mg/kg, po administered 1 hr before carrageenan challenge measured after 6 hrs by plethysmometer; assay type: functional
[9] = system: Rattus norvegicus; assay: AUC in rat at 35 mg/kg, po; assay type: ADME, organism-based, Plasma; set-up: dose 35 mg/kg, route oral; conditions: in vivo
[10] = system: Rattus norvegicus; assay: Gastrointestinal toxicity in rat assessed as ulcerogenic index at 100 mg/kg, po after 5 hrs; assay type: organism-based; set-up: dose 100 mg/kg, route oral; conditions: in vivo
[11] = AUC in rat at 150 mg/kg, po; assay type: ADME, organism-based; set-up: dose 150 mg/kg, route oral; conditions: plasma
[12] = system: Rattus norvegicus; assay: Antiinflammatory activity against carrageenan-induced paw edema in rat at 150 mg/kg, po administered 1 hr before carrageenan challenge measured after 4 hrs by plethysmometer; assay type: functional
[13] = system: Rattus norvegicus; assay: Antiinflammatory activity against carrageenan-induced paw edema in rat at 10 mg/kg, po administered 1 hr before carrageenan challenge measured after 4 hrs by plethysmometer; assay type: functional
[14] = system: Rattus norvegicus; assay: Antiinflammatory activity against carrageenan-induced paw edema in rat at 10 mg/kg, po administered 1 hr before carrageenan challenge measured after 6 hrs by plethysmometer; assay type: functional
[15] = AUC in rat at 10 mg/kg, po; assay type: ADME, organism-based; set-up: dose 10 mg/kg, route oral; conditions: plasma
[16] = system: Rattus norvegicus; assay: Gastrointestinal toxicity in rat assessed as ulcerogenic index at 100 mg/kg, po after 3 hrs; assay type: organism-based; set-up: dose 100 mg/kg, route oral; conditions: in vivo

Which Activity [1] does the source give for `O=C(COC(=O)Cc1ccccc1Nc1c(Cl)cccc1Cl)OCCSSCCO[N+](=O)[O-]` here?
Its Activity is “inactive”.

For `O=C(Cc1ccccc1Nc1c(Cl)cccc1Cl)OCCSSCCO[N+](=O)[O-]`, which UI [2] is on record?
Its UI is 0 mm2.

What about the Activity [3] of the same compound?
The Activity was “Active”.

What does the source list for `CC(=O)Oc1ccccc1C(=O)OCCSSCCO[N+](=O)[O-]`?
AUC [4]: 749 ug/hr.ml; UI [5]: 0 mm2

Which inhibition [6] does the source give for `CC(=O)Oc1ccccc1C(=O)OCC(=O)OCCSSCCO[N+](=O)[O-]` here?
Its inhibition is “inactive”.

What about the Activity [7] of the same compound?
Its Activity is “inactive”.

What does the source list for `CC(=O)Oc1ccccc1C(=O)O` [ASPIRIN]?
inhibition in vivo at 150 mg/kg [8]: 31%; AUC [9]: 909 ug/hr.ml; UI [10]: 99 mm2; AUC [11]: 4050 µg·h/mL; inhibition in vivo at 150 mg/kg [12]: 30%

Which Activity [13] does the source give for `O=C(O)Cc1ccccc1Nc1c(Cl)cccc1Cl` [DICLOFENAC] here?
The Activity was 55%.

And the inhibition in vivo at 10 mg/kg [14]?
Its inhibition in vivo at 10 mg/kg is 21%.

What about the AUC [15] of the same compound?
Its AUC is 65000 ng·h/mL.

What about the UI [16] of the same compound?
Its UI is 108 mm2.
